Test results reported in PMC12668310, “High‐Throughput Synthesis and Screening of a Cyanimide Library Identifies Selective Inhibitors of ISG15‐Specific Protease mUSP18” (Angewandte Chemie (International Ed. in English), 2025).
Like-named read-outs stand apart in the source and are kept apart here.

Biological target: T1, mUSP18 (Mus musculus, UniProt Q9WTV6)
T1 construct: (46-368); His-tag (N); made in house
T1 sequence (Q9WTV6 46-368): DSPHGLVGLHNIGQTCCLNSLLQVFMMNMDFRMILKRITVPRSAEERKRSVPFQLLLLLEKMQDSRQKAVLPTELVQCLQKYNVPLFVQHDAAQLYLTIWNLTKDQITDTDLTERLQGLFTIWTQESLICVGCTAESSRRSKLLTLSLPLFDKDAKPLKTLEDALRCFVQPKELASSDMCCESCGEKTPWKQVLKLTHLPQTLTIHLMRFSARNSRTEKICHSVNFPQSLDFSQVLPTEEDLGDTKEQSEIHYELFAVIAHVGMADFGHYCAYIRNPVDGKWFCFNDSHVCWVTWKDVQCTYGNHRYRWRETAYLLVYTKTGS
Assay: High-throughput screening, ISG15ct-RhoMP, single dose 1.25 µM
Format: biochemical, murine

[1] = mUSP18 %inhibition, carboxylic acid (CA) building block alone, read-out: %inh CA only
[2] = mUSP18 %inhibition, carboxylic acid (CA) with coupling reagents DIC/HOBT, read-out: %inh CA + DIC/HOBT

Row | Compound | inhibition at 1.25 µM [1] [%] | inhibition at 1.25 µM [2] [%] | inhibition of mUSP18 by individual CA's and coupling reagents (screened with and without DIC/HOBt) | %inh CA only (mUSP18 %inhibition, carboxylic acid (CA) building block alone) [%] | %inh CA + DIC/HOBT (mUSP18 %inhibition, carboxylic acid (CA) with coupling reagents DIC/HOBT) [%]
1 | O=C(O)c1ccc2c(c1)ncn2C1CCCCO1 (centres unmarked) [CA084] | -10.2 | -14.9 | – | – | –
2 | O=C(O)c1sc(N2CCCC2)nc1Cl [CA311] | 3.86 | -3.06 | – | – | –
3 | O=C(O)Cc1csc(-c2cccs2)n1 [CA189] | 4.78 | -9.04 | – | – | –
4 | Cc1nn(-c2ccccn2)c(C)c1CC(=O)O [CA315] | 3.49 | -2.69 | – | – | –
5 | CC1=NN(c2ccc(C(=O)O)cc2)CC1 [CA155] | 4.05 | 20.8 | – | – | –
6 | O=C(O)c1cccc(Oc2ccc(Cl)cc2)n1 [CA394] | -5.76 | -1.48 | – | – | –
7 | O=C(O)c1cc(S(=O)(=O)Nc2cccc(F)c2)ccc1F [CA436] | -3.43 | -0.67 | – | – | –
8 | O=C(O)c1ccccc1CCc1ccccc1 [CA026] | 2.38 | -14.8 | – | – | –
9 | CN(Cc1ccccc1)C(=O)N1CCC(C(=O)O)CC1 [CA333] | 1.66 | -0.9 | – | – | –
10 | O=C(O)C1CCCCN1S(=O)(=O)c1ccc(Br)s1 (centres unmarked) [CA459] | -0.93 | -2.17 | – | – | –
11 | Cc1ccc(C=CS(=O)(=O)N2CCC(C(=O)O)CC2)cc1 [CA426] | -0.61 | -6.87 | – | – | –
12 | O=Cc1ccc(O)c(C(=O)O)c1 [CA040] | 1.03 | -7.73 | – | – | –
13 | O=C(O)c1c(F)c(F)c(O)c(F)c1F [CA055] | -5.28 | -14.4 | – | – | –
14 | O=C(O)C1Cc2ccccc21 (centres unmarked) [CA263] | 9.79 | 2.89 | – | – | –
15 | CN(Cc1cccnc1)S(=O)(=O)c1cc(C(=O)O)n(C)c1 [CA203] | 0.22 | 4.09 | – | – | –
16 | Cc1onc(-c2ccncc2)c1C(=O)O [CA308] | 7.23 | -3.66 | – | – | –
17 | O=C(O)c1ccc(N2CCCS2(=O)=O)cc1 [CA336] | 1.69 | -1.03 | – | – | –
18 | O=C(O)c1ccc(CNS(=O)(=O)c2ccc(F)c(F)c2F)cc1 [CA235] | 13.6 | 1.22 | – | – | –
19 | O=C(O)c1ccc(Cn2ccccc2=O)o1 [CA448] | 5.37 | -5.91 | – | – | –
20 | O=C(O)C(Cl)(Cl)Cl [CA073] | 4.86 | -12.6 | – | – | –
21 | O=C(O)c1sccc1S(=O)(=O)NCc1ccco1 [CA320] | -2.92 | 4.46 | – | – | –
22 | O=C(O)c1cccc(-c2ncon2)c1 [CA463] | -1.44 | -3.17 | – | – | –
23 | Cc1nc(-c2cc(C)n(CCC(=O)O)c2C)cs1 [CA280] | 11.4 | 14.1 | – | – | –
24 | Cc1nnnn1-c1cc(C(=O)O)cc(C(F)(F)F)c1 [CA171] | 9.55 | 3.27 | – | – | –
25 | O=C(O)Cc1cnn(-c2ccccc2)c1 [CA232] | 1.32 | 8.28 | – | – | –
26 | O=C(O)C1CC(OCc2ccccc2)C1 (centres unmarked) [CA119] | 13.6 | 8.14 | – | – | –
27 | Cc1nc(COc2ccc(C(=O)O)cc2)no1 [CA276] | 4.94 | 6.3 | – | – | –

Row | Compound | inhibition at 1.25 µM [1] [%] | inhibition at 1.25 µM [2] [%] | inhibition of mUSP18 by individual CA's and coupling reagents (screened with and without DIC/HOBt) | %inh CA only (mUSP18 %inhibition, carboxylic acid (CA) building block alone) [%] | %inh CA + DIC/HOBT (mUSP18 %inhibition, carboxylic acid (CA) with coupling reagents DIC/HOBT) [%]
28 | O=C(O)c1cc(N2CCOCC2)ccn1 [CA285] | 2.02 | -5.92 | – | – | –
29 | CC(C)(C)OC(=O)NCC(=O)O [CA021] | -6.16 | -9.92 | – | – | –
30 | O=C(O)c1ccc(OCc2ccncc2)cc1 [CA105] | 12.9 | 11.9 | – | – | –
31 | Cc1ccc(S(=O)(=O)N[C@@H](Cc2ccccc2)C(=O)O)cc1 [CA291] | 3.32 | -0.72 | – | – | –
32 | CC(=O)CCC(=O)O [CA056] | -7.82 | -15.2 | – | – | –
33 | O=C(O)Cc1csc(C2CC2)n1 [CA455] | 0.84 | -7.57 | – | – | –
34 | O=C(O)c1ncoc1-c1cccs1 [CA094] | 14.4 | 10.3 | – | – | –
35 | Cc1cc(OCC(=O)O)ccc1C(C)C [CA006] | -6.56 | -10.7 | – | – | –
36 | CC1CCCCN1S(=O)(=O)c1ccccc1C(=O)O (centres unmarked) [CA468] | -4.17 | 7 | – | – | –
37 | O=C(O)CCCCCBr [CA025] | 7.25 | -8.17 | – | – | –
38 | Cn1cc(-c2cc[nH]n2)c(C(=O)O)n1 [CA271] | 1 | 7 | – | – | –
39 | Cc1n[nH]c(C)c1Cc1ccc(C(=O)O)o1 [CA445] | -7.28 | 2.15 | – | – | –
40 | Cc1oc(-c2ccco2)nc1CC(=O)O [CA128] | 4.02 | 9.87 | – | – | –
41 | Cc1ccc(-n2c(C)ccc2C)c(C(=O)O)c1 [CA96] | 74.4 | 60 | could inhibit mUSP18 | – | –
42 | NS(=O)(=O)c1ccc(CCNS(=O)(=O)c2cccc(C(=O)O)c2)cc1 [CA283] | 7.79 | -9.16 | – | – | –
43 | Cc1n[nH]c(C)c1S(=O)(=O)N1CCC(C(=O)O)CC1 [CA204] | -0.12 | 3.04 | – | – | –
44 | O=C(O)c1cccc(COc2cccc(F)c2)c1 [CA194] | 9.72 | 3.17 | – | – | –
45 | O=C(O)C1CCN(c2ncccn2)CC1 [CA089] | -4.93 | -12.3 | – | – | –
46 | Cc1nn(C2CCOCC2)c(C)c1C(=O)O [CA219] | 7.18 | -0.2 | – | – | –
47 | O=C(O)c1cc(-n2ccnn2)ccc1F [CA168] | 11.2 | -1.08 | – | – | –
48 | O=C(O)c1ccc(S(=O)(=O)NC2CC2)cc1 [CA132] | 7.6 | 4.16 | – | – | –
49 | Cc1noc(C)c1S(=O)(=O)N1CCC(C(=O)O)CC1 [CA282] | 10.4 | -1.35 | – | – | –
50 | CCn1nccc1-c1cc(C(=O)O)no1 [CA368] | 0.71 | 2.58 | – | – | –
51 | O=C(O)[1C@@H]1C[1C@H]1c1ccco1 [CA116] | 14.9 | 4.8 | – | – | –
52 | O=C(O)c1cn[nH]c1C1CC1 [CA439] | -3.97 | 20.1 | – | – | –
53 | CN1CCN(c2ccc(C(=O)O)cc2)CC1 [CA085] | 5.37 | -9.79 | – | – | –
54 | Cn1cc(-c2cc(C(=O)O)n[nH]2)cn1 [CA419] | -7.23 | -1.62 | – | – | –

Continued, values first:

Row | inhibition at 1.25 µM [1] [%] | inhibition at 1.25 µM [2] [%] | inhibition of mUSP18 by individual CA's and coupling reagents (screened with and without DIC/HOBt) | %inh CA only (mUSP18 %inhibition, carboxylic acid (CA) building block alone) [%] | %inh CA + DIC/HOBT (mUSP18 %inhibition, carboxylic acid (CA) with coupling reagents DIC/HOBT) [%] | Compound
55 | 21.7 | 15.6 | – | – | – | O=C(O)Cc1ccc(S(=O)(=O)N2CCCC2)s1 [CA099]
56 | -3.68 | -16.6 | – | – | – | O=C(O)CCc1ccc(O)cc1 [CA051]
57 | -0.54 | -0.53 | – | – | – | O=C(O)c1nc(OCC2CC2)ccc1Cl [CA322]
58 | -2.41 | -9.9 | – | – | – | O=C(O)C(Br)c1ccccc1 (centres unmarked) [CA024]
59 | 13.5 | 8.07 | – | – | – | Cc1cc(C(=O)N(C)c2ccccc2C(=O)O)sc1C [CA343]
60 | 8.2 | -0.34 | – | – | – | O=C(O)c1cccc(OCCOc2ccccc2Cl)n1 [CA309]
61 | 9.03 | 3.68 | – | – | – | O=C(O)c1cc(Cl)nc(N2CCCC2)c1 [CA244]
62 | -5.16 | -0.88 | – | – | – | Cc1cc(C)n(-c2ccc(Cl)c(C(=O)O)n2)n1 [CA420]
63 | 3.18 | -2.42 | – | – | – | O=C(O)CC1(n2cnnn2)CCOCC1 [CA310]
64 | 10 | 11.6 | – | – | – | O=C(O)c1cccc(S(=O)(=O)Nc2ccc(Cl)cc2)c1 [CA134]
65 | 0.78 | 2.3 | – | – | – | Cn1cc(S(=O)(=O)N2CCCC(C(=O)O)C2)cn1 (centres unmarked) [CA198]
66 | 15.3 | 5.42 | – | – | – | O=C(O)c1ccc(-n2ccnc2)nn1 [CA176]
67 | -1.56 | -6.2 | – | – | – | O=C(O)c1ccc(=O)n(C2CC2)c1 [CA451]
68 | -3.12 | 0.58 | – | – | – | O=C(O)c1ncn(-c2ccccc2)n1 [CA437]
69 | -0.57 | -1.79 | – | – | – | Cn1cc(-c2cc(C(=O)O)no2)cn1 [CA466]
70 | 8.86 | 4.12 | – | – | – | CCn1cc([1C@@H]2OCCC[1C@H]2C(=O)O)cn1 [CA400]
71 | 0.06 | -15.8 | – | – | – | O=C(O)CN1C(=O)c2ccccc2C1=O [CA049]
72 | -3.93 | -14.3 | – | – | – | CN1CCC(C(=O)O)CC1 [CA087]
73 | 1.15 | -3.85 | – | – | – | O=C(O)c1ccc(-n2cccn2)cc1 [CA287]
74 | 0.37 | -9.76 | – | – | – | O=C(O)C1CCN1C1CCCC1 (centres unmarked) [CA402]
75 | 4.94 | 4.56 | – | – | – | O=C(O)c1c(-c2ccccc2)noc1C(F)F [CA177]
76 | 9.75 | 5.3 | – | – | – | CN(Cc1ccccc1)S(=O)(=O)c1ccc(C(=O)O)cc1 [CA267]
77 | -1.96 | -1.91 | – | – | – | O=C(O)c1csc(-c2ccncc2)n1 [CA298]
78 | -7.96 | -15.9 | – | – | – | O=C(O)c1cc([N+](=O)[O-])ccc1Br [CA054]
79 | -0.96 | -9.25 | – | – | – | CCCN(CCC)S(=O)(=O)c1ccc(C(=O)O)cc1 [CA041]
80 | – | – | – | 15.74 | -6.80 | CN1C(=O)C[C@@H](C(=O)O)[C@@H]1c1cccnc1 [CA306]
